Test results reported in patent publication US11992494B2, “Cyclopentathiophene carboxamide derivatives as platelet activating factor receptor antagonists” (Boehringer Ingelheim International GmbH, priority 2021, dated 2024).

Molecular target: PAFR (Homo sapiens, UniProt P25105)
Assay: cellular HTRF IP1 assay: inhibition of PAFR activation by PAF C-16 ligand (endpoint assay)
Type: cell-based
Set-up: expressed in transfected cells; host or cells: HEK293
Experimental: The ability of compounds of formula (I) to inhibit the activation of the PAF receptor (PAFR) by the PAF C-16 ligand (PAF) is determined using the following cellular HTRF IP1 assay (IP1 Gq assay kit from Cisbio, Cat. no.: 62IP1APEJ) in assay buffer (1×HBSS, 20 mM Hepes, pH 7.4, 50 mM LiCl and containing 0.1% (w/v) BSA):
Evaluation of the Inhibition of PAFR Activation Using an Endpoint Assay
HEK293 cells overexpressing human PAFR (produced in-house) are seeded into a Poly-D-Lysine coated 384 well white cell culture microtiter assay plate with lid (15.000 cells per well). Subsequently, the plates are incubated over night at 37° C./5% CO2. On the next day, cells are being washed and subsequently, various concentrations of the test compounds (compounds in 100% DMSO; final concentration of DMSO in wells is 1%) are added to the assay plate via Echo 555 acoustic liquid handler. Plates are then incubated with lid for 90 minutes at 37° C./5% CO2. Thereafter, PAF ligand (Cayman Chemical Company, Item no.: 60900) is added at a final concentration of 11 nM. Plates are then incubated with lid for 60 minutes at 37° C./5% CO2. Then, 5 μl per well of Anti-IP1-Antibody-Cryptate solution and 5 μl per well of IP1-d2 solution are added to all wells of the plate and the plate is incubated for another 60 minutes light protected at room temperature. The emissions at 620 nm and 665 nm (Excitation wavelength: 320 nm) are measured using an Envision Reader (PerkinElmer).

[1] = HEK293 cells overexpressing human PAFR, PAF ligand 11 nM, Table 2
[2] = dedicated head-to-head comparison assay run: cyclopropylene vs di-methyl / cyclobutylene analogues

Chain of PAFR (P25105 whole entry): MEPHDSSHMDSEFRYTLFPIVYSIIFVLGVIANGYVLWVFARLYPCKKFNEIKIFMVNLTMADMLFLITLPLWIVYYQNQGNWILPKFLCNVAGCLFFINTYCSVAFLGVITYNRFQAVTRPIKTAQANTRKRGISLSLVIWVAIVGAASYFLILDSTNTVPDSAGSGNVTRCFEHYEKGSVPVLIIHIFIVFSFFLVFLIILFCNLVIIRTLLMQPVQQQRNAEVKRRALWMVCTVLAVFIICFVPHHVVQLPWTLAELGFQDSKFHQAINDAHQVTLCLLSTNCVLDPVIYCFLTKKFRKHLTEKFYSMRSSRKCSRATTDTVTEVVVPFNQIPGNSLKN

Row | SMILES | IC50 [1] | IC50 [2]
1 | Cc1nnc2n1-c1sc3c(c1C(c1ccccc1)=NC21CC1)C[C@H](C(=O)N1CCOCC1)C3 [Example 120, (13′S)-3′-methyl-13′-(morpholine-4-carbonyl)-9′-phenyl-16′-thia-2′,4′,5′,8′-tetraazaspiro[cyclopropane-1,7′-tetracyclo[8.6.0.0^2,6.0^11,15]hexadecane]-1′(10′),3′,5′,8′,11′(15′)-pentaene] | 14 nM | 
2 | CCN(C(=O)[C@@H]1Cc2sc3c(c2C1)C(c1ccccc1Cl)=NC1(CC1)c1nnc(C)n1-3)[C@@H]1c2ccccc2C[C@H]1O [Example 81] | 3.6 nM | 
3 | Cc1nnc2n1-c1sc3c(c1C(c1ccccc1Cl)=NC21CC1)C[C@H](C(=O)N[C@@H]1C[C@H]1C)C3 [Example 107] | 2.7 nM | 
4 | CO[C@@H]1CC[C@H]1NC(=O)[C@@H]1Cc2sc3c(c2C1)C(c1ccccc1Cl)=NC1(CC1)c1nnc(C)n1-3 [Example 57] | 7.1 nM | 
5 | Cc1nnc2n1-c1sc3c(c1C(c1ccccc1Cl)=NC21CC1)C[C@H](C(=O)N(C)C1CCOCC1)C3 [Example 37] | 6.6 nM | 
6 | CC[C@@H]1C[C@H]2O[C@@H]1C[C@H]2NC(=O)[C@@H]1Cc2sc3c(c2C1)C(c1ccccc1Cl)=NC1(CC1)c1nnc(C)n1-3 [Example 101] | 6 nM | 
7 | Cc1nnc2n1-c1sc3c(c1C(c1ccccc1Cl)=NC21CC1)C[C@H](C(=O)NC1CCC2(CC1)CC2)C3 [Example 69] | 1.5 nM | 
8 | Cc1nnc2n1-c1sc3c(c1C(c1ccccc1Cl)=NC21CC1)C[C@H](C(=O)NC1CCCC(F)(F)C1)C3 (some centres unmarked) [Example 25] | 2.3 nM | 
9 | Cc1nnc2n1-c1sc3c(c1C(c1ccccc1Cl)=NC21CC1)C[C@H](C(=O)NC1CCc2cc(F)ccc21)C3 (some centres unmarked) [Example 61] | 0.6 nM | 1.1 nM
10 | Cc1nnc2n1-c1sc3c(c1C(c1ccccc1Cl)=NC21CC1)C[C@H](C(=O)NC1CCc2cnn(C)c2C1)C3 (some centres unmarked) [Example 54] | 6.6 nM | 
11 | CO[C@@H]1CCCCC1N(C)C(=O)[C@@H]1Cc2sc3c(c2C1)C(c1ccccc1Cl)=NC1(CC1)c1nnc(C)n1-3 (some centres unmarked) [Example 84] | 2.3 nM | 
12 | CCn1ncc2c1CC[C@H](NC(=O)[C@@H]1Cc3sc4c(c3C1)C(c1ccccc1Cl)=NC1(CC1)c1nnc(C)n1-4)C2 [Example 100] | 22 nM | 
13 | Cc1nnc2n1-c1sc3c(c1C(c1ccccc1Cl)=NC21CC1)C[C@H](C(=O)NC1CC2(CCC2)C1)C3 [Example 80] | 2 nM | 
14 | Cc1nnc2n1-c1sc3c(c1C(c1ccccc1Cl)=NC21CC1)C[C@H](C(=O)NC1CC1(C)C)C3 (some centres unmarked) [Example 40] | 1.9 nM | 
15 | Cc1nnc2n1-c1sc3c(c1C(c1ccccc1Cl)=NC21CC1)C[C@H](C(=O)N[C@H]1CC[C@@H](C(F)(F)F)CC1)C3 [Example 52] | 1.8 nM | 
16 | Cc1nnc2n1-c1sc3c(c1C(c1ccccc1Cl)=NC2(C)C)C[C@H](C(=O)N(C)[C@H]1CC[C@H](O)CC1)C3 [reference compound] |  | 87 nM
17 | Cc1nnc2n1-c1sc3c(c1C(c1ccccc1Cl)=NC21CC1)C[C@H](C(=O)N[C@H]1CCCOC1)C3 [Example 29] | 8.4 nM | 
18 | Cc1nnc2n1-c1sc3c(c1C(c1ccccc1Cl)=NC2(C)C)C[C@H](C(=O)N1CCOCC1)C3 [comparative example 1, reference compound] |  | 89 nM
19 | Cc1nnc2n1-c1sc3c(c1C(c1ccccc1Cl)=NC2(C)C)C[C@H](C(=O)N1CCC(F)(F)CC1)C3 [reference compound] |  | 30 nM
20 | CCCN(C(=O)[C@@H]1Cc2sc3c(c2C1)C(c1ccccc1Cl)=NC1(CC1)c1nnc(C)n1-3)C1CCOCC1 [Example 115, (13′S)-9′-(2-chlorophenyl)-3′-methyl-N-(oxan-4-yl)-N-propyl-16′-thia-2′,4′,5′,8′-tetraazaspiro-[cyclopropane-1,7′-tetracyclo[8.6.0.0^2,6.0^11,15]hexadecane]-1′(10′),3′,5′,8′,11′(15′)-pentaene-13′-carboxamide] | 25 nM | 
21 | CCCNC(=O)[C@@H]1Cc2sc3c(c2C1)C(c1ccccc1Cl)=NC1(CC1)c1nnc(C)n1-3 [Example 66] | 2.4 nM | 2.3 nM
22 | Cc1nnc2n1-c1sc3c(c1C(c1ccccc1Cl)=NC21CC1)C[C@H](C(=O)NC1CCC(C)(C)OC1)C3 (some centres unmarked) [Example 94] | 6.4 nM | 
23 | Cc1nnc2n1-c1sc3c(c1C(c1ccccc1Cl)=NC21CC1)C[C@H](C(=O)NC1CCc2ncsc2C1)C3 (some centres unmarked) [Example 34] | 3.8 nM | 
24 | Cc1nnc2n1-c1sc3c(c1C(c1ccccc1Cl)=NC21CC1)C[C@H](C(=O)N1CCC(F)(F)CC1)C3 [Example 129, (13′S)-9′-(2-chlorophenyl)-13′-(4,4-difluoropiperidine-1-carbonyl)-3′-methyl-16′-thia-2′,4′,5′,8′-tetraazaspiro[cyclopropane-1,7′-tetracyclo[8.6.0.0^2,6.0^11,15]hexadecane]-1′(10′),3′,5′,8′,11′(15′)-pentaene] | 2.5 nM | 2.6 nM
25 | Cc1nnc2n1-c1sc3c(c1C(c1ccccc1Cl)=NC21CC1)C[C@H](C(=O)NC1CCOC(C)(C)C1)C3 (some centres unmarked) [Example 33] | 11 nM | 

Row | SMILES | IC50 [1] | IC50 [2]
26 | Cc1nnc2n1-c1sc3c(c1C(c1ccccc1Cl)=NC21CC1)C[C@H](C(=O)NC1(c2ccccc2)CC1)C3 [Example 46] | 2 nM | 
27 | Cc1nnc2n1-c1sc3c(c1C(c1ccccc1Cl)=NC21CC1)C[C@H](C(=O)N[C@H]1CC[C@H](C(F)(F)F)CC1)C3 [Example 15] | 1 nM | 
28 | Cc1nnc2n1-c1sc3c(c1C(c1ccccc1Cl)=NC21CC1)C[C@H](C(=O)N[C@H]1COC[C@H]1C(C)C)C3 [Example 88] | 5.1 nM | 
29 | Cc1nnc2n1-c1sc3c(c1C(c1ccccc1Cl)=NC21CC1)C[C@H](C(=O)N[C@H]1C[C@H]2OCCC[C@@H]12)C3 [Example 93] | 5.2 nM | 
30 | CCOC(=O)N1CCC(N(C)C(=O)[C@@H]2Cc3sc4c(c3C2)C(c2ccccc2Cl)=NC2(CC2)c2nnc(C)n2-4)CC1 [Example 72] | 4.9 nM | 
31 | Cc1nnc2n1-c1sc3c(c1C(c1ccccc1Cl)=NC21CC1)C[C@H](C(=O)NC1(c2ccccc2)CCOCC1)C3 [Example 96] | 6 nM | 
32 | Cc1noc(C)c1NC(=O)[C@@H]1Cc2sc3c(c2C1)C(c1ccccc1Cl)=NC(C)(C)c1nnc(C)n1-3 [reference compound] |  | 39 nM
33 | Cc1nnc2n1-c1sc3c(c1C(c1ccccc1Cl)=NC21CC1)C[C@H](C(=O)N[C@H]1COCC(F)(F)C1)C3 [Example 116] | 3.9 nM | 
34 | Cc1nnc2n1-c1sc3c(c1C(c1ccccc1Cl)=NC21CC1)C[C@H](C(=O)N[C@H]1C[C@H](C#N)C1)C3 [Example 49] | 7.7 nM | 
35 | Cc1nnc2n1-c1sc3c(c1C(c1ccccc1Cl)=NC21CC1)C[C@H](C(=O)N1CC2CC1C2)C3 [Example 11] | 3.6 nM | 
36 | Cc1nnc2n1-c1sc3c(c1C(c1ccccc1Cl)=NC21CC1)C[C@H](C(=O)NC1COc2ccccc21)C3 (some centres unmarked) [Example 55] | 1.4 nM | 
37 | Cc1nnc2n1-c1sc3c(c1C(c1ccccc1Cl)=NC21CC1)C[C@H](C(=O)N(C)[C@@H]1CCCC[C@@H]1O)C3 [Example 41] | 3.9 nM | 
38 | Cc1nnc2n1-c1sc3c(c1C(c1ccccc1Cl)=NC21CC1)C[C@H](C(=O)NCC1CC1)C3 [Example 68] | 1.9 nM | 
39 | Cc1nnc2n1-c1sc3c(c1C(c1ccccc1Cl)=NC21CC1)C[C@H](C(=O)NC1CCc2cccnc21)C3 (some centres unmarked) [Example 42] | 7 nM | 
40 | Cc1nnc2n1-c1sc3c(c1C(c1ccccc1Cl)=NC21CC1)C[C@H](C(=O)NC1(c2cccc(F)c2)CC1)C3 [Example 56] | 1.1 nM | 
41 | CCCNC(=O)[C@@H]1Cc2sc3c(c2C1)C(c1ccccc1Cl)=NC(C)(C)c1nnc(C)n1-3 [reference compound] |  | 29 nM
42 | Cc1nnc2n1-c1sc3c(c1C(c1ccccc1Cl)=NC21CC1)C[C@H](C(=O)N(C)[C@H]1CC[C@H](O)CC1)C3 [Example 112] | 22 nM | 11.9 nM
43 | Cc1nnc2n1-c1sc3c(c1C(c1ccccc1Cl)=NC21CC1)C[C@H](C(=O)N(C)C1CCC(C)(C)CC1)C3 [Example 79] | 0.9 nM | 
44 | Cc1nnc2n1-c1sc3c(c1C(c1ccccc1Cl)=NC21CC1)C[C@H](C(=O)NC1(C)CCCC1)C3 [Example 26] | 1.3 nM | 
45 | Cc1nnc2n1-c1sc3c(c1C(c1ccccc1Cl)=NC21CC1)C[C@H](C(=O)N1C[C@@H](C)O[C@@H](C)C1)C3 [Example 13] | 4.8 nM | 
46 | Cc1nnc2n1-c1sc3c(c1C(c1ccccc1Cl)=NC21CC1)C[C@H](C(=O)NC1CCC(F)(F)CC1)C3 [Example 118] | 2.8 nM | 
47 | Cc1nnc2n1-c1sc3c(c1C(c1ccccc1Cl)=NC21CC1)C[C@H](C(=O)NC1CCCC1)C3 [Example 14] | 1.9 nM | 
48 | CCN(C(=O)[C@@H]1Cc2sc3c(c2C1)C(c1ccccc1Cl)=NC1(CC1)c1nnc(C)n1-3)[C@H]1CC[C@H](O)CC1 [Example 20] | 11 nM | 
49 | Cc1nnc2n1-c1sc3c(c1C(c1ccccc1Cl)=NC21CC1)C[C@H](C(=O)NC12CC(C1)C2)C3 [Example 1, (13′S)—N-{bicyclo[1.1.1]pentan-1-yl}-9′-(2-chlorophenyl)-3′-methyl-16′-thia-2′,4′,5′,8′-tetraazaspiro[cyclopropane-1,7′-tetracyclo[8.6.0.0^2,6.0^11,15]hexadecane]-1′(10′),3′,5′,8′,11′(15′)-pentaene-13′-carboxamide] | 1.3 nM | 
